Laboratory results: patent publication US20070053985A1, “Coenzyme Q10-containing fine particle with excellent dispersibility” (KANEKA CORPORATION, priority 2005, published 2007)

How the values were obtained:
[1] = Dispersibility in water, mixture stirred violently; assay type: physicochemical; conditions: 5 mg added into 100 mL of water, stirring violently
Description: Oxidized coenzyme Q10 crystals (5 mg) or reduced coenzyme Q10 crystals (5 mg) as obtained in the Production Example 1 was added into 100 mL of water, and each mixture was then stirring violently. In the both mixtures, one part of fine particles adhered to the wall of vessel, and another part thereof formed lumps of particles floated on the water surface.

[2] = Adhesion of particles to the wall of a glass sample bottle on shaking; assay type: physicochemical; conditions: 500 mg in a 10-mL glass sample bottle, shaken
Description: Fine particles as obtained in Example 4 (500 mg) was placed in a 10-mL glass sample bottle, and then shaken.
Reduced coenzyme Q10 crystals as obtained in Production Example 1 (500 mg) was placed in a 10-mL glass sample bottle, and then shaken in the same manner as Example 8.

Structure (SMILES) | dispersibility in water [1] | adhesion to the wall of bottle [2]
COc1c(O)c(C)c(C/C=C(\C)CC/C=C(\C)CC/C=C(\C)CC/C=C(\C)CC/C=C(\C)CC/C=C(\C)CC/C=C(\C)CC/C=C(\C)CC/C=C(\C)CCC=C(C)C)c(O)c1OC [reduced coenzyme Q10 crystals, reduced coenzyme Q10] | the particles were not dispersed easily | most of the crystals were adhered to the wall
COC1=C(OC)C(=O)C(C/C=C(\C)CC/C=C(\C)CC/C=C(\C)CC/C=C(\C)CC/C=C(\C)CC/C=C(\C)CC/C=C(\C)CC/C=C(\C)CC/C=C(\C)CCC=C(C)C)=C(C)C1=O [Oxidized coenzyme Q10 crystals, Oxidized coenzyme Q10] | the particles were not dispersed easily | –
